Experimental findings from patent US11981658B2, “Substituted aminopyridine compounds as EGFR inhibitors” (YUHAN CORPORATION, priority 2021, dated 2024) are described below.

Read-outs that look alike come from different tables or passages of the source.

In assay [1] the target is EGFR L858R/T790M/C797S (Homo sapiens, UniProt P00533, C797S/L858R/T790M). Briefly: Biochemical EGFR kinase inhibition assay (Lance Ultra TR-FRET), triple mutant L858R/T790M/C797S. In a few lines:
(§1)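 Enzyme reactions lasted 1 hour at room temperature with test compounds between 0.003 and 10 μM, followed by 10 mM EDTA quench.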

Assay [2] has as its target EGFR Del19/C797S (Homo sapiens, UniProt P00533, C797S/DEL746-750). The experiment in a line: Biochemical EGFR kinase inhibition assay (Lance Ultra TR-FRET), double mutant del19/C797S. In a few lines:
as §1
In general terms: TR-FRET usually uses a lanthanide donor and a delayed reading to cut background.

Assay [3] deals with EGFR wildtype (WT) (Homo sapiens, UniProt P00533). Briefly: Biochemical EGFR kinase inhibition assay (Lance Ultra TR-FRET), wildtype. Summed up: as §1
EGFR wildtype (WT), sequence (P00533 25-1210): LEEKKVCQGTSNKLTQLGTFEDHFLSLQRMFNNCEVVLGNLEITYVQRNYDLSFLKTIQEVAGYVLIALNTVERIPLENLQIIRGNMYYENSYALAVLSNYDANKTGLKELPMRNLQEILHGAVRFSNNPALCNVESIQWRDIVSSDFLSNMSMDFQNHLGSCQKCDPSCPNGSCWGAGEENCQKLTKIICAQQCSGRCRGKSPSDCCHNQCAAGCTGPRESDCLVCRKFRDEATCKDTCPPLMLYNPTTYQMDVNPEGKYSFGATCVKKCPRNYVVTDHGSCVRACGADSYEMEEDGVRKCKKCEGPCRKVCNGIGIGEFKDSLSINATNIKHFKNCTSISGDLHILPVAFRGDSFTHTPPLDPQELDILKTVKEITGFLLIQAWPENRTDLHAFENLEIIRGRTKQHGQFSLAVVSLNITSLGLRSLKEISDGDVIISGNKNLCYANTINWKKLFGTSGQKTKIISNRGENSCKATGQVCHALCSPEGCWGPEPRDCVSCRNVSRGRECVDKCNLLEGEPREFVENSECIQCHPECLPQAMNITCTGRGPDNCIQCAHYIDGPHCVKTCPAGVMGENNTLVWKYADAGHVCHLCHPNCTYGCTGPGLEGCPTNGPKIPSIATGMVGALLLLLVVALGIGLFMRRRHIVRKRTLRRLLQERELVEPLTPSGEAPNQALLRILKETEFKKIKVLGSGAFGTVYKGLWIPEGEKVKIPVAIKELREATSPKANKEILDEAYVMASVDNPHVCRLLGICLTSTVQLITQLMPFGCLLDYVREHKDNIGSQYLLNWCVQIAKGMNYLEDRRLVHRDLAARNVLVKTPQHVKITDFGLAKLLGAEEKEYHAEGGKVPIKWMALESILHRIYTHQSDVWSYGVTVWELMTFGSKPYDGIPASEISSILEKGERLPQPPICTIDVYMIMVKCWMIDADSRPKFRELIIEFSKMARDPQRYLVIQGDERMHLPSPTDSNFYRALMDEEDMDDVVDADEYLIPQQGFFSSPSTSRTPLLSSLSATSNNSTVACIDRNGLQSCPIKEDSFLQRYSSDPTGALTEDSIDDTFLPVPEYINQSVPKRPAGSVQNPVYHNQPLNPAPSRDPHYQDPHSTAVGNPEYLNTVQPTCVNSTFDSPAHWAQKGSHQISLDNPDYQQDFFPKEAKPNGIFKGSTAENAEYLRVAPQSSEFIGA
Assay [4] concerns the target EGFR Del19/T790M/C797S (Homo sapiens, UniProt P00533, C797S/DEL746-750/T790M). Briefly: Biochemical EGFR kinase inhibition assay (Lance Ultra TR-FRET), triple mutant del19/T790M/C797S. Summed up:
as §1

Assay [5] has as its target EGFR L858R/C797S (Homo sapiens, UniProt P00533, C797S/L858R). The experiment in a line: Biochemical EGFR kinase inhibition assay (Lance Ultra TR-FRET), double mutant L858R/C797S. In a few lines: as §1
[6] abbreviates: IC50 L858R/T790M/C797S (nM), 100 μM ATP.
Setting [7] is: Km ATP, read-out: IC50 L858R/T790M/C797S (nM) Km ATP.
[8] abbreviates: IC50 Del19/C797S (nM), 100 μM ATP.
[9] abbreviates: Km ATP, read-out: IC50 Del19/C797S (nM) Km ATP.
Where [10] appears, read: Km ATP, read-out: IC50 WT (nM) Km ATP.
Setting [11] is: IC50 Del19/T790M/C797S (nM), 100 μM ATP.
Where [12] appears, read: Km ATP, read-out: IC50 Del19/T790M/C797S (nM) Km ATP.
The mark [13] stands for this setting: IC50 L858R/C797S (nM), 100 μM ATP.
Setting [14] is: Km ATP, read-out: IC50 L858R/C797S (nM) Km ATP.
Setting [15] is: Km ATP, read-out: IC50 L858R/T790M/C797S (nM), Km ATP.
[16] abbreviates: Km ATP, read-out: IC50 Del19/C797S (nM), Km ATP.
Setting [17] is: Km ATP, read-out: IC50 WT (nM), Km ATP.
[18] abbreviates: Km ATP, read-out: IC50 Del19/T790M/C797S (nM), Km ATP.
[19] abbreviates: Km ATP, read-out: IC50 L858R/C797S (nM), Km ATP.

EGFR L858R/C797S, sequence (P00533 25-1210 C797S/L858R): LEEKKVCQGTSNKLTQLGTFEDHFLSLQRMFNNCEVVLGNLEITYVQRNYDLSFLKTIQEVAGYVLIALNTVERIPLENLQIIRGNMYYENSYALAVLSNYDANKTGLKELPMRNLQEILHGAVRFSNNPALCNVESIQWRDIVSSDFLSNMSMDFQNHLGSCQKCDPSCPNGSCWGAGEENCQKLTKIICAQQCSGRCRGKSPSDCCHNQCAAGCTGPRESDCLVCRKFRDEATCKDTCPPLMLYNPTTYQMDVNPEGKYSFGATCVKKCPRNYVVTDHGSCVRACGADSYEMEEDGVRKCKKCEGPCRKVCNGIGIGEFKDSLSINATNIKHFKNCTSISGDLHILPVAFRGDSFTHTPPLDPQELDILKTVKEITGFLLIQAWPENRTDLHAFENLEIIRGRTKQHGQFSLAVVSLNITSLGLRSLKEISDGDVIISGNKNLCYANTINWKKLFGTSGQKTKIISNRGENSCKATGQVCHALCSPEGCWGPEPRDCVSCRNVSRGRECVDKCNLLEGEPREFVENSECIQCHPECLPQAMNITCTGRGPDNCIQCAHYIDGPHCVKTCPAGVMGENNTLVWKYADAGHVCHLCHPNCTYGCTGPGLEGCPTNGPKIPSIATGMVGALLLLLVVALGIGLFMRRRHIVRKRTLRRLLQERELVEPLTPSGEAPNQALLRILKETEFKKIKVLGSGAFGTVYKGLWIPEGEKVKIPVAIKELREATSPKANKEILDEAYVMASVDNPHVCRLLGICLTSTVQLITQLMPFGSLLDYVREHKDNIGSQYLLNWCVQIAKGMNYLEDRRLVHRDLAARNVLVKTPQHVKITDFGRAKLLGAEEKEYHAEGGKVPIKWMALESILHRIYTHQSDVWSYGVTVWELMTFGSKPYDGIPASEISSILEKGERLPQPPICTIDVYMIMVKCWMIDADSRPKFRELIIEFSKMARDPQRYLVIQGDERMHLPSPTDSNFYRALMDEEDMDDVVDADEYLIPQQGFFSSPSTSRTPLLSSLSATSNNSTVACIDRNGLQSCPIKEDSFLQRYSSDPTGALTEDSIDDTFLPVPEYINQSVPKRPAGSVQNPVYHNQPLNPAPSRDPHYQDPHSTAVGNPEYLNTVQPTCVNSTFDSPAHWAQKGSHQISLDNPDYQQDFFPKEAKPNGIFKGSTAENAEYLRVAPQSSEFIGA
EGFR Del19/T790M/C797S, sequence (P00533 with tags, fused parts or gaps DEL746-750/T790M/C797S): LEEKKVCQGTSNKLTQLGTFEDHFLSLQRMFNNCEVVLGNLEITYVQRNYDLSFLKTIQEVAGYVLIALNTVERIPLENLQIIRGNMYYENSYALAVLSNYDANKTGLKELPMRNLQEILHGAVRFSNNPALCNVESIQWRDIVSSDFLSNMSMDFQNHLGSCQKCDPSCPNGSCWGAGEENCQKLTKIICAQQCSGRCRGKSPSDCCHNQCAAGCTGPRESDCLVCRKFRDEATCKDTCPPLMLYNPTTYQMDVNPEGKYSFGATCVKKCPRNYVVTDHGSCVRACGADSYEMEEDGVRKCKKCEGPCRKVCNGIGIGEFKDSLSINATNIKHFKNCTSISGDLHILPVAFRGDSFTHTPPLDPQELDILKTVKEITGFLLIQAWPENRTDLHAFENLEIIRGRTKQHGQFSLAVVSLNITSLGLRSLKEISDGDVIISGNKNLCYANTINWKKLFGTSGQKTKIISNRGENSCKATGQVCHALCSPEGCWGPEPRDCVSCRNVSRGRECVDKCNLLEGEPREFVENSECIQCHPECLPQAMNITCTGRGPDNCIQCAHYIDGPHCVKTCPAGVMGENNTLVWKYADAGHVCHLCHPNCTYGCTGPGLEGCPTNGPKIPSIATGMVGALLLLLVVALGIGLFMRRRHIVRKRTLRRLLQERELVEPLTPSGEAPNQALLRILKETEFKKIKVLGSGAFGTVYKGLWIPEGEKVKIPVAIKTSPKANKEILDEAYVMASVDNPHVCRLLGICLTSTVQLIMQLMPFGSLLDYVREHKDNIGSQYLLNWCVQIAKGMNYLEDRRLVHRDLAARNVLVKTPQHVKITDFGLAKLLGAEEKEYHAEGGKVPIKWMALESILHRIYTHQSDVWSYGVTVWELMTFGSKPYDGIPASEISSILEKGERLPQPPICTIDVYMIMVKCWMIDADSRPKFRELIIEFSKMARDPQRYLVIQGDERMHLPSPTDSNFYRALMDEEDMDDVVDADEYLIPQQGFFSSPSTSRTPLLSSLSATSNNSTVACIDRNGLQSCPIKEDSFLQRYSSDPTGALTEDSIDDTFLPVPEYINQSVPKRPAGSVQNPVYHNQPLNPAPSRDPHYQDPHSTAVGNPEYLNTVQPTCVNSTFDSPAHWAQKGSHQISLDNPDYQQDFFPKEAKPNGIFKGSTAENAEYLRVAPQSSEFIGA
EGFR L858R/T790M/C797S, sequence (P00533 25-1210 T790M/C797S/L858R): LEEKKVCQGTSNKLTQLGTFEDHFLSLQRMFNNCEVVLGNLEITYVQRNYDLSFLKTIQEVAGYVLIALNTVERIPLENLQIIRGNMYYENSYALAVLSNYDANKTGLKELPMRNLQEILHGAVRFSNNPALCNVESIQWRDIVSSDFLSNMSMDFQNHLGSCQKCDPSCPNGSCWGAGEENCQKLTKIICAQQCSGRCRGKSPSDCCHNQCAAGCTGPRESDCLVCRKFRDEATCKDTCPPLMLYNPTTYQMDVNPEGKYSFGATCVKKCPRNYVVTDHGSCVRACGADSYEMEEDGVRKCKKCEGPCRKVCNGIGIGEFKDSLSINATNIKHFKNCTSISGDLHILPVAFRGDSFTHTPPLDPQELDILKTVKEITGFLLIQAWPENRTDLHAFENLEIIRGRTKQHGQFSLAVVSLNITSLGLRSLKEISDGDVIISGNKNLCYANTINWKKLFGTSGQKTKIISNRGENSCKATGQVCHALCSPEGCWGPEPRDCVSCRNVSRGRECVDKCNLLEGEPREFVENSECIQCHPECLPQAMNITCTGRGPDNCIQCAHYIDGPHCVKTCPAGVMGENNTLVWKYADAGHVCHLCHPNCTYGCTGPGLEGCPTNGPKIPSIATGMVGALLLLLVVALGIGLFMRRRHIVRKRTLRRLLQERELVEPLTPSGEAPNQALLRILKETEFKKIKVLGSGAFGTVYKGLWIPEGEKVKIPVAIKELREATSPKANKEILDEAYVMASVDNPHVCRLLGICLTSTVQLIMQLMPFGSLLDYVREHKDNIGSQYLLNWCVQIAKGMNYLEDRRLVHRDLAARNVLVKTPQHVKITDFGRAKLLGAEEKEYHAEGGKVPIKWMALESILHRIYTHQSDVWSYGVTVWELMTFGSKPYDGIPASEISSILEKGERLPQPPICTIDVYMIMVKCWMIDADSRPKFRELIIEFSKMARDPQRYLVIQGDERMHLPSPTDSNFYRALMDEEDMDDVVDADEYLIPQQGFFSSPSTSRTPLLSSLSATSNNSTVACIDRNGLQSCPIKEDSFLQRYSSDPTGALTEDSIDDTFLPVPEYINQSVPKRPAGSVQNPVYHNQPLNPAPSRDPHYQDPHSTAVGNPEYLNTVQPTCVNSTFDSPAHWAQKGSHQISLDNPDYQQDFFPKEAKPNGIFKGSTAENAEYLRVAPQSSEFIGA

With `CN(C)CCNC1CCN(c2cc(Nc3ccnc(-c4cnn(S(=O)(=O)C5CC5)c4)n3)ncc2C#Cc2cnn(C(F)(F)F)c2)CC1` [Example 143, N^1-(1-(2-((2-(1-(Cyclopropylsulfonyl)-1H-pyrazol-4-yl)pyrimidin-4-yl)amino)-5-((1-(trifluoromethyl)-1H-pyrazol-4-yl)ethynyl)pyridin-4-yl)piperidin-4-yl)-N^2,N^2-dimethylethane-1,2-diamine], the IC50 in assay [1] (setting [6]) is 0.9 nM; in assay [1] (setting [7]) it was 0.3 nM; in assay [2] (setting [8]) it was 1.9 nM; in assay [2] (setting [9]) it was 1.2 nM; in assay [3] (IC50 WT (nM), 100 μM ATP) it was greater than 10000 nM; in assay [3] (setting [10]), 14.3 nM. For the same compound, the IC50 in assay [4] (setting [11]) worked out at 0.5 nM; in assay [4] (setting [12]), 0.5 nM; in assay [5] (setting [13]) it was 83.5 nM; in assay [5] (setting [14]), 1.8 nM.
For the compound `CN1CCC2(CC1)CCN(c1cc(Nc3ccnc(-c4cnn(S(=O)(=O)C5CC5)c4)n3)ncc1C#Cc1cnn(C3CC3)c1)CC2` [Example 319, N-(5-((1-Cyclopropyl-1H-pyrazol-4-yl)ethynyl)-4-(9-methyl-3,9-diazaspiro[5.5]undecan-3-yl)pyridin-2-yl)-2-(1-(cyclopropylsulfonyl)-1H-pyrazol-4-yl)pyrimidin-4-amine], the IC50 in assay [1] (setting [6]) was determined as 0.3 nM; in assay [2] (setting [8]), 3.2 nM; in assay [3] (IC50 WT (nM), 100 μM ATP), 4540 nM; in assay [4] (setting [11]) it was 0.3 nM; in assay [5] (setting [13]) it was 17.1 nM.
On to `CC(=O)N1CCC(n2cc(C#Cc3cnc(Nc4ccnc(-c5cnn(S(=O)(=O)C6CC6)c5)n4)cc3N3CCC(NCCN(C)C)CC3)cn2)CC1` [Example 139, 1-(4-(4-((6-((2-(1-(Cyclopropylsulfonyl)-1H-pyrazol-4-yl)pyrimidin-4-yl)amino)-4-(4-((2-(dimethylamino)ethyl)amino)piperidin-1-yl)pyridin-3-yl)ethynyl)-1H-pyrazol-1-yl)piperidin-1-yl)ethan-1-one], for which the IC50 in assay [1] (setting [6]) turned out to be 0.4 nM; in assay [1] (setting [7]), 0.1 nM; in assay [2] (setting [8]) it was 1.4 nM; in assay [2] (setting [9]), 0.9 nM; in assay [3] (IC50 WT (nM), 100 μM ATP), 1580 nM; in assay [3] (setting [10]) it was 5.4 nM. Besides, the IC50 amounted to 0.4 nM in assay [4] (setting [11]), 0.4 nM in assay [4] (setting [12]), 8.2 nM in assay [5] (setting [13]) and 0.9 nM in assay [5] (setting [14]).
As to `CC1(CO)CCN(c2cc(Nc3ccnc(-c4cnn(S(=O)(=O)C5CC5)c4)n3)ncc2C#Cc2cnn(CC3CCOCC3)c2)CC1` [Example 231, (1-(2-((2-(1-(Cyclopropylsulfonyl)-1H-pyrazol-4-yl)pyrimidin-4-yl)amino)-5-((1-((tetrahydro-2H-pyran-4-yl)methyl)-1H-pyrazol-4-yl)ethynyl)pyridin-4-yl)-4-methylpiperidin-4-yl)methanol], the IC50 in assay [1] (setting [6]) was found to be 1.5 nM; in assay [1] (setting [7]), 0.9 nM; in assay [2] (setting [8]) it was 3 nM; in assay [2] (setting [9]), 1.3 nM; in assay [3] (IC50 WT (nM), 100 μM ATP), 968 nM; in assay [3] (setting [10]), 6.1 nM. Besides, the IC50 in assay [4] (setting [11]) is 1.6 nM; in assay [4] (setting [12]), 1.7 nM; in assay [5] (setting [13]), 4.6 nM; in assay [5] (setting [14]), 1.1 nM.
As to `O=S(=O)(C1CC1)n1cc(-c2nccc(Nc3cc(N4C[C@H]5C[C@@]5(CO)C4)c(C#Cc4cnn(C(F)(F)F)c4)cn3)n2)cn1` [Example 333, ((1 S,5S)-3-(2-((2-(1-(Cyclopropylsulfonyl)-1H-pyrazol-4-yl)pyrimidin-4-yl)amino)-5-((1-(trifluoromethyl)-1H-pyrazol-4-yl)ethynyl)pyridin-4-yl)-3-azabicyclo[3.1.0]hexan-1-yl)methanol], the IC50 is 13 nM in assay [1] (setting [6]); 3.5 nM in assay [1] (setting [15]); 255 nM in assay [2] (setting [8]); 133 nM in assay [2] (setting [16]); greater than 10000 nM in assay [3] (IC50 WT (nM), 100 μM ATP); 240 nM in assay [3] (setting [17]). Further, the IC50 was 17.8 nM in assay [4] (setting [11]), 6.8 nM in assay [4] (setting [18]), greater than 10000 nM in assay [5] (setting [13]) and 245 nM in assay [5] (setting [19]).
Consider `O=S(=O)(C1CC1)n1cc(-c2nccc(Nc3cc(N[C@H]4CC[C@@H](O)CC4)c(C#Cc4ccc(CN5CCOCC5)cc4)cn3)n2)cn1` [Example 157, (1s,4s)-4-((2-((2-(1-(Cyclopropylsulfonyl)-1H-pyrazol-4-yl)pyrimidin-4-yl)amino)-5-((4-(morpholinomethyl)phenyl)ethynyl)pyridin-4-yl)amino)cyclohexan-1-ol], for which the IC50 in assay [1] (ATP at Km, read-out: IC50 L858R/T790M/C797S (nM), Km ATP) was 1.7 nM; in assay [1] (setting [6]), 4.6 nM; in assay [2] (ATP at Km, read-out: IC50 Del19/C797S (nM), Km ATP), 3.7 nM; in assay [2] (setting [8]) it was 10.6 nM; in assay [3] (ATP at Km, read-out: IC50 WT (nM), Km ATP), 127 nM; in assay [3] (IC50 WT (nM), 100 μM ATP), greater than 10000 nM. In addition, the IC50 was determined as 3.3 nM in assay [4] (ATP at Km, read-out: IC50 Del19/T790M/C797S (nM), Km ATP); 3.6 nM in assay [4] (setting [11]); 3.3 nM in assay [5] (ATP at Km, read-out: IC50 L858R/C797S (nM), Km ATP); 40.8 nM in assay [5] (setting [13]).
Turning to `Cn1cc(C#Cc2cnc(Nc3ccnc(-c4cnn(S(=O)(=O)C5CC5)c4)n3)cc2N2CCCC(C(F)(F)F)C2)cn1` (stereo not shown) [Example 71, 2-(1-(Cyclopropylsulfonyl)-1H-pyrazol-4-yl)-N-(5-((1-methyl-1H-pyrazol-4-yl)ethynyl)-4-(3-(trifluoromethyl)piperidin-1-yl)pyridin-2-yl)pyrimidin-4-amine], the IC50 in assay [1] (setting [6]) was 52.6 nM; in assay [2] (setting [8]), 127 nM; in assay [3] (IC50 WT (nM), 100 μM ATP), greater than 10000 nM; in assay [4] (setting [11]), 15.7 nM; in assay [5] (setting [13]), 751 nM.
As to `O=S(=O)(C1CC1)n1cc(-c2nccc(Nc3cc(NC[C@H]4CC[C@H](O)CC4)c(C#CC4CC5CCC4O5)cn3)n2)cn1` (stereo partly shown) [Example 423, (1r,4r)-4-(((5-((7-Oxabicyclo[2.2.1]heptan-2-yl)ethynyl)-2-((2-(1-(cyclopropylsulfonyl)-1H-pyrazol-4-yl)pyrimidin-4-yl)amino)pyridin-4-yl)amino)methyl)cyclohexan-1-ol], the IC50 in assay [1] (setting [6]) is 3.2 nM; in assay [2] (setting [8]), 105 nM; in assay [3] (IC50 WT (nM), 100 μM ATP) it was greater than 10000 nM; in assay [4] (setting [11]) it was 1.2 nM; in assay [5] (setting [13]), 1770 nM.
With `C[C@]1(O)CC[C@H](CNc2cc(Nc3ccnc(-c4cnn(S(=O)(=O)C5CC5)c4)n3)ncc2C#Cc2cnn(CCF)c2)CC1` [Example 380, (1 r,4r)-4-(((2-((2-(1-(Cyclopropylsulfonyl)-1H-pyrazol-4-yl)pyrimidin-4-yl)amino)-5-((1-(2-fluoroethyl)-1H-pyrazol-4-yl)ethynyl)pyridin-4-yl)amino)methyl)-1-methylcyclohexan-1-ol], the IC50 in assay [1] (setting [6]) was 5.4 nM; in assay [1] (setting [15]), 2.6 nM; in assay [2] (setting [8]), 58.7 nM; in assay [2] (setting [16]) it was 32.5 nM; in assay [3] (IC50 WT (nM), 100 μM ATP), greater than 10000 nM; in assay [3] (setting [17]) it was 114 nM. The IC50 came to 1.5 nM in assay [4] (setting [11]), 2.4 nM in assay [4] (setting [18]), 1170 nM in assay [5] (setting [13]) and 32.6 nM in assay [5] (setting [19]).
Turning to `CC1(CO)CCN(c2cc(Nc3ccnc(-c4cnn(S(=O)(=O)C5CC5)c4)n3)ncc2C#CC2(O)CCOC2)CC1` (stereo not shown) [Example 355, 3-((6-((2-(1-(Cyclopropylsulfonyl)-1H-pyrazol-4-yl)pyrimidin-4-yl)amino)-4-(4-(hydroxymethyl)-4-methylpiperidin-1-yl)pyridin-3-yl)ethynyl)tetrahydrofuran-3-ol], the IC50 in assay [1] (setting [6]) stood at 0.2 nM; in assay [1] (setting [15]) it was 0.1 nM; in assay [2] (setting [8]), 0.4 nM; in assay [2] (setting [16]), 0.2 nM; in assay [3] (IC50 WT (nM), 100 μM ATP), 1740 nM; in assay [3] (setting [17]), 4.8 nM. The IC50 in assay [4] (setting [11]) turned out to be 0.2 nM; in assay [4] (setting [18]), 0.2 nM; in assay [5] (setting [13]), 7.4 nM; in assay [5] (setting [19]), 0.5 nM.
